According to paper PMC6366404, “4-(3-Nitrophenyl)thiazol-2-ylhydrazone derivatives as antioxidants and selective hMAO-B inhibitors: synthesis, biological activity and computational analysis” (Journal of Enzyme Inhibition and Medicinal Chemistry, 2019):

How the values were obtained:
hMAO-B = target: T1, hMAO-B (Homo sapiens, UniProt P27338); test: hMAO-B inhibition, IC50 determination (kynuramine fluorescence); format: biochemical; settings: ratio (IC50 hMAO-A)/(IC50 hMAO-B)
T1 sequence (P27338 1-520): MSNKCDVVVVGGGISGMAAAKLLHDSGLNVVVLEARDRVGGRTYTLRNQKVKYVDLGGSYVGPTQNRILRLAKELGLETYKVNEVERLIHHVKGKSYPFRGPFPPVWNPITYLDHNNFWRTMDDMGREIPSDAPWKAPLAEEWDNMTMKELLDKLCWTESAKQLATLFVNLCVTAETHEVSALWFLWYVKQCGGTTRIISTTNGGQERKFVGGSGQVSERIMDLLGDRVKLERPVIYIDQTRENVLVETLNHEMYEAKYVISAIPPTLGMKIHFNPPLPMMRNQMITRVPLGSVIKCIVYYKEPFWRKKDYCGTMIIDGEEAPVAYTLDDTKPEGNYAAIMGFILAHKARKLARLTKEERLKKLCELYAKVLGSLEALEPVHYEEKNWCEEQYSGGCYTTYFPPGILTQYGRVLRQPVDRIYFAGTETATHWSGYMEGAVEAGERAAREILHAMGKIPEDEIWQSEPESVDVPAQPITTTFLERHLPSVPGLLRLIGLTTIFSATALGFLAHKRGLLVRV
Procedure: (§1) The procedure for the measurement of IC50 values for the inhibition of MAO has been reported. The enzyme reactions were prepared to a volume of […] in potassium phosphate buffer at pH 7.4 (100 mM, made isotonic with KCl) and contained kynuramine (50 μM) and the test inhibitors (0.003–100 µM). Stock solutions of the test inhibitors were prepared in DMSO and added to the reactions to yield 4% DMSO. The enzyme reactions were initiated with the addition of recombinant hMAO-A (0.0075 mg protein/mL) or hMAO-B (0.015 mg protein/mL) and incubated for 20 min at 37 °C. At endpoint, the reactions were terminated with 80 µL sodium hydroxide (2N) and the fluorescence of 4-hydroxyquinoline, the oxidation product of kynuramine, was measured (λex = 310; λem = 400 nm)[33]. 4-Hydroxyquinoline was quantified with a calibration curve (0.047–1.56 μM) and the rate of 4-hydroxyquinoline formation was fitted to the one site competition model of the Prism 5 software package (GraphPad). From the resulting sigmoidal plots, the IC50 values were estimated. All enzyme reactions were carried out in triplicate and IC50 values are given as the mean ± standard deviation (SD).

[1] = Metal chelating activity on ferrous ions; settings: ferrozine
Procedure: Metal chelating activity on ferrous ions was evaluated by the method previously described. Briefly, the sample solution (2 ml) was added to FeCl2 solution (0.05 ml, 2 mM). The reaction was initiated by the addition of 5 mM ferrozine (0.2 ml). Similarly, a blank was prepared by adding the sample solution (2 ml) to FeCl2 solution (0.05 ml, 2 mM) and water (0.2 ml) without ferrozine. Then, the sample and blank absorbance were recorded at 562 nm after incubation for 10 min at room temperature. The absorbance of the blank was subtracted from that of the sample. EDTA was used as a positive control and this property was expressed as IC50 value for each compound.

[2] = ABTS radical cation scavenging activity
Procedure: (§2) The scavenging activity of the compounds on the ABTS radical cation [ABTS,2,2′-azino-bis(3-ethylbenzothiazoline)-6-sulphonic acid] was measured according to the method of Zengin et al.[37] with slight modification. Briefly, ABTS^+ was produced directly by reacting a 7 mM ABTS solution with 2.45 mM potassium persulphate and allowing the mixture to incubate for 12–16 h in the dark at room temperature. Prior to initiating the assay, the ABTS solution was diluted with methanol to an absorbance of 0.700 ± 0.02 at 734 nm. The sample solution (1 ml) was added to the ABTS^+ solution (2 ml) and mixed, and the sample absorbance was recorded at 734 nm after 30 min incubation at room temperature. The corresponding IC50 value, which is the effective concentration at which 50% of DPPH/ABTS radicals are scavenged, was calculated for each compound and trolox, as a reference drug.

[3] = DPPH radical scavenging activity
Procedure: The radical scavenging effect of the compounds using the 1,1-diphenyl-2-picrylhydrazyl (DPPH) radical was estimated according to Zengin et al.[36]. The sample solution (1 ml) was added to 4 ml of a 0.004% solution of DPPH in methanol. The sample absorbance was recorded at 517 nm after 30 min incubation at room temperature in the dark.
as §2

[4] = Cupric ion reducing activity (CUPRAC)
Procedure: The cupric ion reducing activity (CUPRAC) was determined according to the method of Zengin et al.[38]. The sample solution (0.5 ml) was added to a premixed reaction mixture containing CuCl2 (1 ml, 10 mM), neocuproine (1 ml, 7.5 mM), and NH4Ac buffer (1 ml, 1 M, pH 7.0). Similarly, a blank was prepared by adding the sample solution (0.5 ml) to a premixed reaction mixture (3 ml) without CuCl2. The absorbances of the sample and blank were subsequently recorded at 450 nm after 30 min incubation at room temperature. The absorbance of the blank was subtracted from that of the sample.
(§3) The FRAP (ferric reducing antioxidant power) assay was carried out as described by Zengin et al.[38]. The sample solution (0.1 ml) was added to the premixed FRAP reagent (2 ml) containing acetate buffer (0.3 M, pH 3.6), 2,4,6-tris(2-pyridyl)-s-triazine (10 mM) in 40 mM HCl, and ferric chloride (20 mM) in a ratio of 10/1/1 (v/v/v). The absorbance of the sample was subsequently recorded at 593 nm after 30 min incubation at room temperature. Both results were expressed as EC50 values, using trolox as a reference drug.

hMAO-A = target: T2, hMAO-A (Homo sapiens, UniProt P21397); test: hMAO-A inhibition, IC50 determination (kynuramine fluorescence); format: biochemical
T2 sequence (P21397 1-527): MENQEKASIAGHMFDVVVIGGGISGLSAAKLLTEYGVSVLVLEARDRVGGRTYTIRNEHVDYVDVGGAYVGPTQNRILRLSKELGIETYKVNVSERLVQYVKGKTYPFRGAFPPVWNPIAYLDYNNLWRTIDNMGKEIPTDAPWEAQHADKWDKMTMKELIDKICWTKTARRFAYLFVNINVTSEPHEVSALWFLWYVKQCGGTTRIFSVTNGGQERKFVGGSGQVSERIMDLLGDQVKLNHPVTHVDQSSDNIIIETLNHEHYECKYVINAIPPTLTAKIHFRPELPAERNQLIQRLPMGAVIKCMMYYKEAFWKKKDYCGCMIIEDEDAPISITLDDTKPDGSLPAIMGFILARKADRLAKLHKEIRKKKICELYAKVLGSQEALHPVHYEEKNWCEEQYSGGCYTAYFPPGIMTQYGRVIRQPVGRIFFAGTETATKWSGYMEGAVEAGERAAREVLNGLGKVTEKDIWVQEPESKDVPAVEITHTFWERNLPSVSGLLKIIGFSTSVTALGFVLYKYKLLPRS
Procedure: as §1

[5] = Phosphomolybdenum assay (PhosphoMo), total antioxidant activity; settings: concentration at which absorbance was 0.5
Procedure: The total antioxidant activity of the compounds was evaluated by phosphomolybdenum method according to Zengin et al.[35]. The sample solution (0.3 ml) was combined with 3 ml of reagent solution (0.6 M sulphuric acid, 28 mM sodium phosphate, and 4 mM ammonium molybdate) and the absorbance was recorded at 695 nm after 90 min incubation at 95 °C. The EC50, which is the effective concentration at which the absorbance was 0.5, was calculated for each compound and trolox, as a reference drug.

[6] = FRAP (ferric reducing antioxidant power) assay
Procedure: as §3

## O=[N+]([O-])c1cccc(-c2csc(NN=Cc3cccs3)n2)c1 [Compound 3, 1-(4-(3-Nitrophenyl)thiazol-2-yl)-2-(thiophen-2-ylmethylene)hydrazine]
hMAO-B
  Selectivity index (SI) for the MAO-B isoform: 8412
[1]
  IC50: > 5000 µM
[2]
  IC50: 1050 ± 10 µM
[3]
  IC50: 1190 ± 10 µM
[4]
  EC50: 590 ± 10 µM
hMAO-A
  IC50: 57.2 µM
[5]
  EC50: 1840 ± 180 µM
[6]
  EC50: 410 ± 20 µM
